Values belong to the compound of their own block, whether it stands above or below them.
Experiments:
Assay type in all cases: cell-based
[1] = tested on: LC3-II; assay: Western blot of LC3-I to LC3-II conversion (autophagy); conditions: 24 h; for accumulation of LC3-II under deltarasin: A549 cells
Method: (§1) Cells were washed twice with cold PBS and then lysed in RIPA lysis buffer containing protease and phosphatase inhibitors. Protein concentration of the cell lysate was measured by using the Bio-Rad protein assay kit (Bio-Rad, Philadelphia, Pa., USA). After equalizing the protein concentrations of the samples, 5×laemmli buffer was added and boiled at 100° C. for 5 min. Equal amounts of protein (20-40 μg per lane) were separated with a 10% SDS-PAGE gel, then the separated proteins were transferred to a nitrocellulose (NC) membrane, which was then exposed to 5% non-fat dry milk in TBS contains 0.1% Tween 20 (0.1% TBST) for 1 h at room temperature with constant agitation, followed by overnight incubation at 4° C. with primary anti-bodies. After washing 3 times with TBST, the membranes were incubated with secondary rabbit or mouse fluorescent antibodies, then the signal intensity of the membranes was detected by anLI-COR Odessy scanner (Belfast, Me., USA). All primary antibodies were diluted in 1:1000, while their recommended secondary antibodies were diluted in 1:10000.

[2] = tested on: A549 cells; assay: GFP-LC3 puncta formation in transfected A549 cells; conditions: 24 h
Method: GFP-LC3 expression vector was utilized to monitor and quantify the induction of autophagy following the 3rd autophagy guidelines. A549 cells were seeded at a density of 2×10^5 cells/well in 6-well plates, according to the manufacturers instructions. Lipofectamine™ 2000 was incubated with GFP-LC3 in Opti-MEM reduced serum medium for 20 min at room temperature. The mixture was added drop by drop to the cells and then incubated for 4-6 h. The DNA/Lipofectamine™ 2000 medium was replaced by fresh medium and cultured for another 24 h. […] The percentage of autophagic cells was calculated by counting the number of the cells showing increased punctuate pattern of LC3 fluorescence (≧10 dots/cell) in immunofluorescence positive cells over the total number of cells in the same field. A minimum of 300 cells from randomly selected fields were scored.

[3] = tested on: A549 cells; assay: Cell viability assay (MTT)
Method: […] At the end of the incubation, 10 μl of MTT (5 mg/mL, Sigma) were added into each well for 4 h at 37° C., then the crystals were dissolved in 100 μl of the resolved solution (10% SDS and 0.1 mM HCL). The absorbance at 570 nm was measured using a microplate reader (Tecan, Morrisville, N.C., USA). The cell viability was calculated relative to untreated controls. At least 3 independent experiments were performed and the data were plotted as curve graph.

[4] = tested on: A549 cells; assay: Cell apoptosis assay, Annexin V/PI flow cytometry; conditions: 24 h
Method: (§2) Apoptosis was measured using the Annexin V-FITC apoptosis detection kit (BD Biosciences, San Jose, Calif., USA), according to the manufacturer protocol. Briefly, A549, H358 and PANC-1 cells (1.0×10^5 cells/well) were allowed to attach in a six-well plate for 24 h, cells were treated with deltarasin for 24 h. Subsequently, cells were trypsinized, washed with PBS and stained with 100 μL binding buffer containing 2 μl Annexin-V FITC (2.5 μg/ml) and 5 μl propidium iodide (PI) (50 μg/ml) incubated in the dark at room temperature for 15 min, before further addition of 400 μl of 1×Annexin-binding buffer. The stained cells were analyzed quantitatively using a BD Aria III Flow Cytometer (BD Biosciences, San Jose, Calif., USA). Data were analyzed by Flow Jo software.

[5] = tested on: PARP, Bcl-2 and Bax; assay: Western blot of apoptosis-related proteins in A549 cells; conditions: 24 h
Method: as §1

[6] = tested on: intracellular ROS; assay: Detection of ROS production by DCF-DA flow cytometry; conditions: PANC-1, A549 and H358 cells, 24 h
Method: Intracellular ROS generation was measured by DCF-DA fluorescence probe using flow cytometry. Briefly, A549, H358 and PANC-1 cells (1×10^5 cells/well) were seeded in a six-well plate, and different concentrations of deltarasin were added into the wells. After treatment with deltarasin for 24 h, the treated cells were detached with trypsin, and washed twice with PBS and incubated with 10 μM DCF-DA for 30 min at 37° C. in the dark, the fluorescence-stained cells were then analyzed using a FACS BD Aria III flow cytometer.

[7] = tested on: H358 cells; assay: Cell viability assay (MTT); conditions: Homo sapiens, NCI-H358, 72 h
Method: (§3) 3000 cells were seeded at 96-well plates and cultured overnight for cell adhesion, and treated with DMSO or various concentrations of deltarasin for 72 h. At the end of the incubation, 10 μl of MTT (5 mg/mL, Sigma) were added into each well for 4 h at 37° C., then the crystals were dissolved in 100 μl of the resolved solution (10% SDS and 0.1 mM HCL). The absorbance at 570 nm was measured using a microplate reader (Tecan, Morrisville, N.C., USA). The cell viability was calculated relative to untreated controls. At least 3 independent experiments were performed and the data were plotted as curve graph.

[8] = tested on: PANC-1 cells; assay: Cell viability assay (MTT); conditions: Homo sapiens, 72 h
Method: as §3

[9] = tested on: H358 cells; assay: Cell apoptosis assay, Annexin V/PI flow cytometry; conditions: 24 h, deltarasin 5 μM, 3-MA 5 mM where co-treated
Method: as §2

[10] = tested on: c-Raf, Akt and ERK phosphorylation; assay: Western blot of KRAS downstream signalling; conditions: PANC-1, A549 and H358 cells, 24 h, 0-5 μM
Method: as §1

[11] = tested on: GTP-RAS; assay: RAS activation assay (Raf1 RBD pull-down) in A549 cells; conditions: 5 μM, 24 h
Method: A549 cells were treated with deltarasin for 24 h at 5 μM. Cells were lysed in lysis buffer, adjusted the volume of each sample to 1 ml with 1×Assay Lysis Buffer. Then 40 μl of the Raf1 RBD Agarose bead slurry was swiftly added to each samples. The samples were incubated at 4° C. for 1 h with gentle agitation. The beads were washed 3 times with cold lysis buffer, and bounded protein was resuspended in 40 μl of 2×reducing SDS-PAGE sample buffer and heated at 100° C. for 5 min. The level of […] was detected after SDS-PAGE followed by Western blot.

[12] = tested on: KRAS; assay: Immunofluorescence of KRAS cellular localization in A549 cells; conditions: 5 μM, 24 h
Method: Cells were plated on 6-well plates and grown overnight, then treated with 5 μM deltarasin or 5 mM 3-MA for 24 h. Cells were fixed with 4% paraformaldehyde for 20 min at 4° C., followed by permeabilized with 0.2% Triton X-100 in PBS for 10 min. Subsequently, the cells were blocked with 2% BSA/PBS for 30 min at room temperature, then incubated with KRAS antibody (1:100) overnight at 4° C., followed by the secondary antibody (1:500) for 1 h at room temperature. The nuclear was stained with 1 μg/ml Hoechst staining for 10 min in the dark. The cells were visualized using fluorescent microscopy.

[13] = tested on: A549 cells; assay: Colony formation assay; conditions: 10 days
Method: Detailed procedures of colony formation assay were described previously (Franken, N. A., et al., Nature protocols, 2006, 1(5):2315-2319). A549 cells were seeded in a six-well plate at a density of 500 cells per well. The cells were exposed to various concentrations of deltarasin. After 10-14 days, the colonies were fixed with 4% paraformaldehyde and stained with 0.5% (0.5% w/v) crystal violet solutions, the number of colonies were counted under a dissecting microscope.

[14] = tested on: AMPK-mTOR signaling pathway; assay: Western blot of AMPK-mTOR pathway in A549 cells; conditions: 0-5 μM, 24 h
Method: as §1

SMILES: Cn1cnc(N)c2ncnc1-2 [3-MA, 3-methyladenine]
accumulation of LC3-II induced by deltarasin ([1]; PANC-1, A549 and H358 cells, 5 μM deltarasin plus 5 mM 3-MA): suppressed
number of GFP-LC3 puncta under deltarasin ([2]; 5 μM deltarasin plus 5 mM 3-MA): significantly diminished

SMILES: CC(=O)N[C@@H](CS)C(=O)O [NAC, N-acetyl cysteine]
deltarasin-induced cell cytotoxicity ([3]; 5 μM deltarasin plus 5 μM NAC, 24 h): decreases
deltarasin-induced apoptosis ([4]; 5 μM deltarasin plus 5 μM NAC): decreases
PARP cleavage under deltarasin ([5]; 5 μM deltarasin plus 5 μM NAC): suppressed
accumulation of LC3-II under deltarasin ([1]; 5 μM deltarasin plus 5 μM NAC): suppressed
high level of ROS induced by deltarasin ([6]; 5 μM deltarasin plus 5 μM NAC): suppressed

SMILES: c1cc(-c2cnn3cc(-c4ccc(OCCN5CCCCC5)cc4)cnc23)ccn1 [compound C]
accumulation of LC3-II under deltarasin ([1]; 5 μM deltarasin plus 5 μM Compound C): suppressed

IC50 [7]: 4.21 ± 0.72 µM
IC50 [8]: 3.86 ± 0.96 µM
IC50 ([3]; Homo sapiens, 72 h, MTT): 5.29 ± 0.7 µM
SMILES: c1ccc(Cn2c(-c3ccc(OC[C@H](C4CCNCC4)n4c(-c5ccccc5)nc5ccccc54)cc3)nc3ccccc32)cc1 [deltarasin]
induction of apoptosis vs untreated cells ([4]; 5 μM): significantly induced apoptosis
cell apoptosis ([4]; deltarasin 5 μM, 3-MA 5 mM where co-treated): 11.25%
cell apoptosis [9]: 15.99%
c-Raf, Akt and ERK phosphorylation [10]: inhibited
cleavage of PARP ([5]; 5 μM): induction of the cleavage of PARP
expression of anti-apoptotic protein Bcl-2 [5]: reduction
expression of pro-apoptotic protein Bax [5]: increase
binding of GTP to c-Raf-1 binding domain (KRAS-GTP level) [11]: significantly inhibited
KRAS cellular localization [12]: reduced the amount of KRAS protein at the plasma membrane and displaced KRAS into the cytoplasm
colony formation capacity ([13]; 0-5 μM): significantly inhibits
colonies formed ([13]; 5 μM): no visible colonies
conversion of LC3-I to LC3-II ([1]; PANC-1, A549 and H358 cells, 0-5 μM, dose-dependent): distinctly facilitated
GFP-LC3 puncta formation ([2]; 5 μM, vs untreated control): increased percentage
mTOR and p70S6K phosphorylation [14]: suppressed
p-AMPK level [14]: up-regulation
intracellular ROS levels ([6]; 5 μM): significantly elevated
